Experiments:
[1] = target: T1, IRE1a (Homo sapiens, UniProt O75460); assay: In vitro FRET assay (XBP1 RNA probe cleavage by IRE1a); assay type: biochemical; parameters: purchased SignalChem; conditions: SignalChem IRE1a protein 2 nM
Procedure: In vitro FRET assay was performed to evaluate the ability of select compounds to inhibit IRE1, the results of which are summarized in Table 3. To perform the in vitro FRET assay, 1× complete assay buffer (CAB; […] DTT, 50 mM sodium citrate pH 7.15, 1 mM magnesium acetate, 0.02% tween 20) was used to dilute SignalChem IRE1a protein to a final concentration of 2 nM. Selected compounds were serially diluted with DMSO in a non-binding black 384-well plate for a total of 15 ul in each well. 2 ul of the serially diluted compound or DMSO control were then added to new wells containing 98 ul of 1×CAB, for a total volume of 100 ul, 10 ul of which were then transferred to wells of a new plate. 5 ul of the diluted IRE1a was then added to each well. 5 ul of a […] XBP1 RNA probe was then added to each well. Fluorescence was then read over 30 minutes in kinetic mode (485/515 nm).
Two RNA probes were used, XBP1 wildtype (SEQ ID NO: 2) which is able to be spliced by active IRE1a or XBP1 mutant (SEQ ID NO: 3) which is unable to be spliced. Each probe contained a 5′ 6-FAM modification and a 3′ IOWA Black FQ modification.

[2] = target: T1, IRE1a; assay: IRE1a Endoribonuclease Nanoluciferase Assay (XBP1 luciferase reporter in 293 T cells); assay type: cell-based; conditions: 293 T cells transfected with XBP1 luciferase reporter plasmid
Procedure: Compounds disclosed herein were assessed for disruption of IRE1 signaling using a IRE1a Endoribonuclease Nanoluciferase Assay. Briefly, 2.5×10^6 293 T cells were seeded in a 10 cm^2 tissue culture plate. About 24 hours later, the cells were transfected with Effectene. In a 15 mL Tube, the following was added: 2 μg XBP1 luciferase reporter plasmid (PGK-Luc2-P2A-XBP1u-Nanoluciferase-PEST); 300 μl EC buffer; and 16 μl Enhancer, followed by incubation at room temp for 5 minutes. Next, 60 μl Effectene (Qiagen 301427) was added, followed by incubation at room temperature for 10 minutes. 2.6 mL cDMEM media was added. Old media was aspirated from the cells, followed by addition of 7 mL fresh media. Full transfection mixture was added dropwise to cells. Cells were incubated for 6 hours, followed by tripsinization, centrifugation and resuspension in 11 mL media. 100 uL of cells were plated per a well in a 96 well plate. A day later, stressors of choice+/− inhibitors were added. To harvest, media was aspirated from cells completely, then 50 uL 1× passive lysis buffer (Promega: E1941) was added per well and put on shaker (300 rpm) for 30 minutes at room temperature. Cells were centrifuged, and 15 uL sample per well was added to a new, opaque white 384 well plate (Corning 3570). 15 uL OneGlo (nanoluciferase kit, Promega N1630) was added. Plates were spun down, placed on shaker (300 rpm) for 10 minutes. Plates were read on luminometer, 1000 ms integration time per well. 15 uL Stop and Glo (nanoluciferase kit) was added. Plates were spun down, placed on shaker (300 rpm) for 10 minutes. Plates were read on luminometer, 1000 ms second integration time per well. Recordings are provided below in Table 4.

T1 sequence (O75460 19-977): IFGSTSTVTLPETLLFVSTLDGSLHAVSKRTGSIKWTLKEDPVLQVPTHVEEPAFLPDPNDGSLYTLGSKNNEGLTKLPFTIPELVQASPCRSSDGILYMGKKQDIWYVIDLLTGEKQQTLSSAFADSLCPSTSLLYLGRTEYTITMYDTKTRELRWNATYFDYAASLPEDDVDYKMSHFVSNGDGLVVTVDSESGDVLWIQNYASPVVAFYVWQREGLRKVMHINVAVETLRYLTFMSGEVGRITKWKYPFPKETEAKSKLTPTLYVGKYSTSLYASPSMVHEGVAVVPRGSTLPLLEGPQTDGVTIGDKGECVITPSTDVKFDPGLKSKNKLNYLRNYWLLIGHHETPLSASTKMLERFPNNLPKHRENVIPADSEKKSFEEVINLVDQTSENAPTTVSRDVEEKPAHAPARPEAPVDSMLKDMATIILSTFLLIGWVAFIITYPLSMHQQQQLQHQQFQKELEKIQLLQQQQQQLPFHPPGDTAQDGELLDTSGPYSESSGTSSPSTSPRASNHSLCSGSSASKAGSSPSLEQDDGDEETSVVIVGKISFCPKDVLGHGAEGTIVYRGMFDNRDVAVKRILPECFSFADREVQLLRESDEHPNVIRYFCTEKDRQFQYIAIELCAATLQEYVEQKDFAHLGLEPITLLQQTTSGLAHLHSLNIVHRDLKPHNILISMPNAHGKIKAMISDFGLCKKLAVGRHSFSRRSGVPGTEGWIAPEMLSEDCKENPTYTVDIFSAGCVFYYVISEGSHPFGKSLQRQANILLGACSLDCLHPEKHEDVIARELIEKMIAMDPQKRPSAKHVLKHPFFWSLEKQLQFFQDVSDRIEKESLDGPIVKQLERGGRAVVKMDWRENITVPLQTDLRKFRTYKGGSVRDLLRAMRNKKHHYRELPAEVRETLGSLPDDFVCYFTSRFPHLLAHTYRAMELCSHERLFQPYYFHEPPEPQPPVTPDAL

Row | IC50 [1] [nM] | EC50 [2] [nM] | SMILES
1 | > 100 | > 100 | CCc1cc(-c2cc(NC(=O)Cc3cc(C(F)(F)F)ccc3C(F)(F)F)nn2C)cc2cnc(N[C@H]3CC[C@H](NC(=O)COC)CC3)nc12 [Compound 42, 2-(2,5-bis(trifluoromethyl)phenyl)-N-(5-(8-ethyl-2-(((1r,4r)-4-(2-methoxyacetamido)cyclohexyl)amino)quinazolin-6-yl)-1-methyl-1H-pyrazol-3-yl)acetamide]
2 | 50 to 100 | > 100 | Cn1nc(NC(=O)Cc2cccc(C(F)(F)F)c2)cc1-c1ccc2nc(N[C@H]3CC[C@H](N)CC3)ncc2c1 [Compound 1, N-(5-(2-(((1r,4r)-4-aminocyclohexyl)amino)quinazolin-6-yl)-1-methyl-1H-pyrazol-3-yl)-2-(3-(trifluoromethyl)phenyl)acetamide]
3 | ≤ 5 | > 100 | CCc1cc(-c2cc(NC(=O)Cc3ccc(C(F)(F)F)cc3)nn2C)cc2cnc(N[C@H]3CC[C@H](N)CC3)nc12 [Compound 6, N-(5-(2-(((1r,4r)-4-aminocyclohexyl)amino)-8-ethylquinazolin-6-yl)-1-methyl-1H-pyrazol-3-yl)-2-(4-(trifluoromethyl)phenyl)acetamide]
4 | > 100 | > 100 | Cn1nc(NC(=O)Cc2cccc(C(F)(F)F)c2)cc1-c1cc2cnc(N[C@H]3CC[C@H](N)CC3)nc2c2ccccc12 [Compound 31, N-(5-(2-(((1r,4r)-4-aminocyclohexyl)amino)benzo[h]quinazolin-6-yl)-1-methyl-1H-pyrazol-3-yl)-2-(3-(trifluoromethyl)phenyl)acetamide]
5 | 5 to 50 | > 100 | CCc1cc(-c2cc(NC(=O)Cc3ccc(Cl)c(C(F)(F)F)c3)nn2C)cc2cnc(N[C@H]3CC[C@H](N)CC3)nc12 [Compound 18, N-(5-(2-(((1r,4r)-4-aminocyclohexyl)amino)-8-ethylquinazolin-6-yl)-1-methyl-1H-pyrazol-3-yl)-2-(4-chloro-3-(trifluoromethyl)phenyl)acetamide]
6 | ≤ 5 | 5 to 50 | CCc1cc(-c2cc(CC(=O)Nc3ccc(OCCCNC)c(C(F)(F)F)c3)nn2C)cc2cnc(N[C@H]3CC[C@H](N)CC3)nc12 [Compound 37, 2-(5-(2-(((1r,4r)-4-aminocyclohexyl)amino)-8-ethylquinazolin-6-yl)-1-methyl-1H-pyrazol-3-yl)-N-(4-(3-(methylamino)propoxy)-3-(trifluoromethyl)phenyl)acetamide]
7 | ≤ 5 | > 100 | CCc1cc(-c2cc(NC(=O)Cc3ccc(C(F)(F)F)c(F)c3)nn2C)cc2cnc(N[C@H]3CC[C@H](N)CC3)nc12 [Compound 7, N-(5-(2-(((1r,4r)-4-aminocyclohexyl)amino)-8-ethylquinazolin-6-yl)-1-methyl-1H-pyrazol-3-yl)-2-(3-fluoro-4-(trifluoromethyl)phenyl)acetamide]
8 | ≤ 5 | 50 to 100 | CCc1cc(-c2cc(NC(=O)Cc3cccc(C(F)(F)F)c3)nn2C)cc2cnc(N[C@H]3CC[C@H](NCCOC)CC3)nc12 [Compound 40, N-(5-(8-ethyl-2-(((1r,4r)-4-((2-methoxyethyl)amino)cyclohexyl)amino)quinazolin-6-yl)-1-methyl-1H-pyrazol-3-yl)-2-(3-(trifluoromethyl)phenyl)acetamide]
9 | ≤ 5 | 5 to 50 | CCc1cc(-c2cc(NC(=O)Cc3cccc(C(F)(F)F)c3)nn2C)cc2cnc(N[C@H]3CC[C@H](N(C)C)CC3)nc12 [Compound 39, N-(5-(2-(((1r,4r)-4-(dimethylamino)cyclohexyl)amino)-8-ethylquinazolin-6-yl)-1-methyl-1H-pyrazol-3-yl)-2-(3-(trifluoromethyl)phenyl)acetamide]
10 | ≤ 5 | ≤ 5 | CCc1cc(-c2cc(NC(=O)Nc3ccc(OCCCNC)c(C(F)(F)F)c3)nn2C)cc2cnc(N[C@H]3CC[C@H](N)CC3)nc12 [Compound 29, 1-(5-(2-(((1r,4r)-4-aminocyclohexyl)amino)-8-ethylquinazolin-6-yl)-1-methyl-1H-pyrazol-3-yl)-3-(4-(3-(methylamino)propoxy)-3-(trifluoromethyl)phenyl)urea]
11 | > 100 | > 100 | CCc1cc(-c2cc(NC(=O)Cc3cc(C(F)(F)F)ccc3C(F)(F)F)nn2C)cc2cnc(N[C@H]3CC[C@H](NC(C)=O)CC3)nc12 [Compound 41, N-(5-(2-(((1r,4r)-4-acetamidocyclohexyl)amino)-8-ethylquinazolin-6-yl)-1-methyl-1H-pyrazol-3-yl)-2-(2,5-bis(trifluoromethyl)phenyl)acetamide]
12 | 5 to 50 | > 100 | CCc1cc(-c2cc(NC(=O)Cc3cc(C)cc(F)c3)nn2C)cc2cnc(N[C@H]3CC[C@H](N)CC3)nc12 [Compound 27, N-(5-(2-(((1r,4r)-4-aminocyclohexyl)amino)-8-ethylquinazolin-6-yl)-1-methyl-1H-pyrazol-3-yl)-2-(3-fluoro-5-methylphenyl)acetamide]
13 | ≤ 5 | 5 to 50 | CCc1cc(-c2cc(NC(=O)Cc3cc(C(F)(F)F)ccc3OC)nn2C)cc2cnc(N[C@H]3CC[C@H](N)CC3)nc12 [Compound 43, N-(5-(2-(((1r,4r)-4-aminocyclohexyl)amino)-8-ethylquinazolin-6-yl)-1-methyl-1H-pyrazol-3-yl)-2-(2-methoxy-5-(trifluoromethyl)phenyl)acetamide]
14 | ≤ 5 | 5 to 50 | CCc1cc(-c2cc(NC(=O)Nc3cc(C(F)(F)F)ccc3C(F)(F)F)nn2C)cc2cnc(N[C@H]3CC[C@H](N)CC3)nc12 [Compound 35, 1-(5-(2-(((1r,4r)-4-aminocyclohexyl)amino)-8-ethylquinazolin-6-yl)-1-methyl-1H-pyrazol-3-yl)-3-(2,5-bis(trifluoromethyl)phenyl)urea]
15 | ≤ 5 | 5 to 50 | CCc1cc(-c2cc(NC(=O)Nc3cccc(C(F)(F)F)c3)nn2C)cc2cnc(N[C@H]3CC[C@H](N)CC3)nc12 [Compound 19, 1-(5-(2-(((1r,4r)-4-aminocyclohexyl)amino)-8-ethylquinazolin-6-yl)-1-methyl-1H-pyrazol-3-yl)-3-(3-(trifluoromethyl)phenyl)urea]
16 | ≤ 5 | 5 to 50 | CCc1cc(-c2cc(NC(=O)Cc3ccc(OCCCNC)c(C(F)(F)F)c3)nn2C)cc2cnc(N[C@H]3CC[C@H](N)CC3)nc12 [Compound 30, N-(5-(2-(((1r,4r)-4-aminocyclohexyl)amino)-8-ethylquinazolin-6-yl)-1-methyl-1H-pyrazol-3-yl)-2-(4-(3-(methylamino)propoxy)-3-(trifluoromethyl)phenyl)acetamide]
17 | 5 to 50 | > 100 | CCc1cc(-c2cc(NC(=O)C(C)c3cccc(C(F)(F)F)c3)nn2C)cc2cnc(N[C@H]3CC[C@H](N)CC3)nc12 (some centres unmarked) [Compound 25, N-(5-(2-(((1r,4r)-4-aminocyclohexyl)amino)-8-ethylquinazolin-6-yl)-1-methyl-1H-pyrazol-3-yl)-2-(3-(trifluoromethyl)phenyl)propanamide]
18 | ≤ 5 | > 100 | CCc1cc(-c2cc(NC(=O)C(CC)c3ccccc3)nn2C)cc2cnc(N[C@H]3CC[C@H](N)CC3)nc12 (some centres unmarked) [Compound 16, N-(5-(2-(((1r,4r)-4-aminocyclohexyl)amino)-8-ethylquinazolin-6-yl)-1-methyl-1H-pyrazol-3-yl)-2-phenylbutanamide]
19 | 5 to 50 | > 100 | CCc1cc(-c2cc(NC(=O)Cc3cccc(OC(F)(F)F)c3)nn2C)cc2cnc(N[C@H]3CC[C@H](N)CC3)nc12 [Compound 11, N-(5-(2-(((1r,4r)-4-aminocyclohexyl)amino)-8-ethylquinazolin-6-yl)-1-methyl-1H-pyrazol-3-yl)-2-(3-(trifluoromethoxy)phenyl)acetamide]
